Source: patent publication US12351559B2 (Biohaven Therapeutics Ltd., priority 2014, dated 2025)

The molecules below were run against T1, Kv7.2/7.3 (Homo sapiens, UniProt O43525+O43526) (assay: Kv7.2/7.3 activation assay, QPatch planar patch-clamp, single concentration screen). Conditions: Kv7.2/Kv7.3 co-expressing HEK cells, compound 3 μM, steady-state current at end of 2 s pulse to −30 mV.
T1 construct: host or cells: HEK cells, tetracycline-inducible expression
Format: cell-based
Parameters: key: <1.2-fold increase over baseline (−); +/−: as a range from <1.2-fold increase over baseline (−) up to >6-fold increase over baseline (+++); as a range from <1.2-fold increase over baseline (−) up to >6-fold increase over baseline (+++); as a range from <1.2-fold increase over baseline (−) up to >6-fold increase over baseline (+++); >6-fold increase over baseline (+++)
Procedure: The ability of compounds to potentiate K-currents in Kv7.2/7.3 containing HEK cells was assessed using planar patch-clamp on the QPatch automated screening platform.
Cell Line: The hKv7.2/7.3 cell line was obtained from Chantest (Cleveland, OH 44128) cat. #CT6147. These HEK cells will express the Kv7.2/7.3 ion channels when induced.
Cell Culture: Cells were maintained in a media containing DMEM/F12; 50/50 (GIBCO cat. #11330), 10% Fetal Bovine Serum (FBS) (GIBCO cat. #26140), 100 units/mL Penicillin-Streptomycin (GIBCO cat. #15140), 0.005 mg/mL Blasticidin (INVIVOGEN cat. #ant-bl-1), 0.5 mg/mL Geneticin (GIBCO cat. #10131), 0.1 mg/ml Zeocin (GIBCO cat. #R25001). Cells used in the electrophysiology assay were maintained in a media without Blasticidin, Geneticin and Zeocin for 2 days and channel expression was induced by adding tetracycline (BIOLINE cat. #BIO-87030) at a final concentration of 1 mg/mL. Cells were grown in T-175 flask to ˜75% confluency. Currents were recorded 24 hours after channel induction.
Compound Plates: Test compounds were prepared by performing serial dilutions on a Biomek NX^P (BECKMAN COULTER). Final dilutions were made in external recording solution with a final DMSO concentration of 0.1% DMSO. For single concentration screens each plate had 10 μM retigabine as a positive control and 0.1% DMSO as a negative control.
Electrophysiology: On the day of the experiment cells were washed with Hank's Balanced Salt Solution (HBBS) (GIBCO cat. #14175) and harvested with Tryple (GIBCO cat. #12604). Cells were then centrifuged at 2000 rpm for 5 minutes and resuspended in CHO-S-SFM (GIBCO cat. #12052) at ˜3×10^6 cells/mL. Cells were stirred for 30 minutes before experiments were started. External recording solution contained (in mM): NaCl (145), KCl (4), CaCl2 (2), MgCl2 (1), HEPES (10) and Glucose (10); pH was adjusted to 7.4 with NaOH and the osmolarity was adjusted to 300-305 mOsM with sucrose if necessary. Internal solution contained (in mM): KCl (125), KF (10), EGTA (5), Na2ATP (5), MgCl2 (3.2), HEPES (5); pH was adjusted to 7.2 with KOH and the osmolarity was adjusted to 298-302 mOsM with sucrose.
Potassium channel activity was measured on the QPatch HTX (Sophion Bioscience) using QPlates with 48-wells/plate. Each cell was taken as an independent experiment and only one compound was tested per well. Potassium channel activity was elicited by holding at −80 mV and stepping to −30 mV for 2 s followed by a 100 ms pulse to −120 mV.
Single concentration screen: Baseline conditions were obtained by recording 5 sweeps in the external solution only, this was repeated for three applications of the external solution. […] The steady-state current at the end of the 2 s pulse to −30 mV was measured to determine the fold increase from baseline.

Kv7.2/7.3 Activity: increase in current over baseline	SMILES
+/−	CCOC(=O)c1ccc2nc(NC(=O)CC(C)(C)C)n(C3CCC3)c2c1 [Example 50, ethyl 1-cyclobutyl-2-(3,3-dimethylbutanamido)-1H-benzo[d]imidazole-6-carboxylate]
+	CC(C)(C)CC(=O)Nc1nc2ccc(CO)cc2n1C1CCC1 [Example 51, N-(1-cyclobutyl-6-(hydroxymethyl)-1H-benzo[d]imidazol-2-yl)-3,3-dimethylbutanamide]
+	CC(C)(C)CC(=O)Nc1nc2ccc(C(C)(C)O)cc2n1C1CCC1 [Example 53, N-(1-cyclobutyl-6-(2-hydroxypropan-2-yl)-1H-benzo[d]imidazol-2-yl)-3,3-dimethylbutanamide]
+	CC(O)c1ccc2nc(NC(=O)CC(C)(C)C)n(C3CCC3)c2c1 (centres unmarked) [Example 55, N-(1-cyclobutyl-6-(1-hydroxyethyl)-1H-benzo[d]imidazol-2-yl)-3,3-dimethylbutanamide]
+	CCC(O)c1ccc2nc(NC(=O)CC(C)(C)C)n(C3CCC3)c2c1 (centres unmarked) [Example 57]
+	CC(C)(C)CC(=O)Nc1nc2ccc(Cl)cc2n1C1CCC1 [Example 60, N-(6-chloro-1-cyclobutyl-1H-benzo[d]imidazol-2-yl)-3,3-dimethylbutanamide]
++	CC(C)(C)CC(=O)Nc1nc2ccc(Br)cc2n1C1CCC1 [Example 63, N-(6-bromo-1-cyclobutyl-1H-benzo[d]imidazol-2-yl)-3,3-dimethylbutanamide]
++	CC(C)c1ccc2nc(NC(=O)CC(C)(C)C)n(C3CCC3)c2c1 [Example 64, N-(1-cyclobutyl-6-isopropyl-1H-benzo[d]imidazol-2-yl)-3,3-dimethylbutanamide]
++	CC(C)(C)CC(=O)Nc1nc2ccc(C(F)F)cc2n1C1CCC1 [Example 66, N-(1-cyclobutyl-6-(difluoromethyl)-1H-benzo[d]imidazol-2-yl)-3,3-dimethylbutanamide]
+	CC(C)(C)CC(=O)Nc1nc2cccc(CO)c2n1C1CCC1 [Example 68, N-(1-cyclobutyl-7-(hydroxymethyl)-1H-benzo[d]imidazol-2-yl)-3,3-dimethylbutanamide]

The remaining lines, values behind:

SMILES	Kv7.2/7.3 Activity: increase in current over baseline
Cc1cc(-n2c(NC(=O)[C@H]3CC3(C)C)nc3ccc(C(F)(F)F)cc32)on1 [Example 45, (S)-2,2-Dimethyl-N-(1-(3-methylisoxazol-5-yl)-6-(trifluoromethyl)-1H-benzo[d]imidazol-2-yl)cyclopropanecarboxamide]	+
Cc1cc(-n2c(NC(=O)CC(C)(C)C)nc3ccc(C(F)(F)F)cc32)on1 [Example 46, 3,3-dimethyl-N-(1-(3-methylisoxazol-5-yl)-6-(trifluoromethyl)-1H-benzo[d]imidazol-2-yl)butanamide]	+
Cc1cc(-n2c(NC(=O)[C@@H](C)C(C)C)nc3ccc(C(F)(F)F)cc32)on1 [Example 47, (S)-2,3-dimethyl-N-(1-(3-methylisoxazol-5-yl)-6-(trifluoromethyl)-1H-benzo[d]imidazol-2-yl)butanamide]	+
Cc1cc(-n2c(NC(=O)[C@@H](C)C(C)(C)C)nc3ccc(C(F)(F)F)cc32)on1 [Example 48, (S)-2,3,3-trimethyl-N-(1-(3-methylisoxazol-5-yl)-6-(trifluoromethyl)-1H-benzo[d]imidazol-2-yl)butanamide]	+++ (>6-fold increase over baseline (+++))
Cc1cc(-n2c(NC(=O)[C@@H](C)C(C)(C)C)nc3ccc(C#N)cc32)on1 [Example 49, (S)-N-(6-cyano-1-(3-methylisoxazol-5-yl)-1H-benzo[d]imidazol-2-yl)-2,3,3-trimethylbutanamide]	+
CC(C)[C@H](C)C(=O)Nc1nc2ccc(CO)cc2n1C1CCC1 [Example 52, (S)-N-(1-cyclobutyl-6-(hydroxymethyl)-1H-benzo[d]imidazol-2-yl)-2,3-dimethylbutanamide]	+/−
CC(C)[C@H](C)C(=O)Nc1nc2ccc(C(C)(C)O)cc2n1C1CCC1 [Example 54, (S)-N-(1-cyclobutyl-6-(2-hydroxypropan-2-yl)-1H-benzo[d]imidazol-2-yl)-2,3-dimethylbutanamide]	++
CC(O)c1ccc2nc(NC(=O)[C@@H](C)C(C)C)n(C3CCC3)c2c1 (stereo partly drawn) [Example 56, (2S)-N-(1-cyclobutyl-6-(1-hydroxyethyl)-1H-benzo[d]imidazol-2-yl)-2,3-dimethylbutanamide]	++
CC1(C)C[C@@H]1C(=O)Nc1nc2ccc(Cl)cc2n1C1CCC1 [Example 58, (S)-N-(6-chloro-1-cyclobutyl-1H-benzo[d]imidazol-2-yl)-2,2-dimethylcyclopropane-1-carboxamide]	+
CC(C)[C@H](C)C(=O)Nc1nc2ccc(Cl)cc2n1C1CCC1 [Example 59, (S)-N-(6-chloro-1-cyclobutyl-1H-benzo[d]imidazol-2-yl)-2,3-dimethylbutanamide]	+
O=C(CC1(O)CCC1)Nc1nc2ccc(Cl)cc2n1C1CCC1 [Example 62, N-(6-chloro-1-cyclobutyl-1H-benzo[d]imidazol-2-yl)-2-(1-hydroxycyclobutyl)acetamide]	+
CC(C)c1ccc2nc(NC(=O)[C@@H](C)C(C)C)n(C3CCC3)c2c1 [Example 65, (S)—N-(1-cyclobutyl-6-isopropyl-1H-benzo[d]imidazol-2-yl)-2,3-dimethylbutanamide]	+
COC(=O)c1cccc2nc(NC(=O)CC(C)(C)C)n(C3CCC3)c12 [Example 67, methyl 1-cyclobutyl-2-(3,3-dimethylbutanamido)-1H-benzo[d]imidazole-7-carboxylate]	+/−
Cc1cc(-n2c(NC(=O)CC(C)(C)C)nc3ccc(C#N)cc32)on1 [Example 69, N-(6-cyano-1-(3-methylisoxazol-5-yl)-1H-benzo[d]imidazol-2-yl)-3,3-dimethylbutanamide]	+
C[C@@](O)(CC(=O)Nc1nc2ccc(C#N)cc2n1-c1ccc(F)cc1)c1ccccc1 [Example 70, (R)-N-(6-cyano-1-(4-fluorophenyl)-1H-benzo[d]imidazol-2-yl)-3-hydroxy-3-phenylbutanamide]	+/−
C[C@H](C(=O)Nc1nc2ccc(C#N)cc2n1-c1ccc(F)cc1)C(C)(C)C [Example 71, (S)-N-(6-cyano-1-(4-fluorophenyl)-1H-benzo[d]imidazol-2-yl)-2,3,3-trimethylbutanamide]	+
CC(C)(C(=O)Nc1nc2ccc(C#N)cc2n1C1CCC1)C(O)c1ccccc1 (centres unmarked) [Example 72, N-(6-cyano-1-cyclobutyl-1H-benzo[d]imidazol-2-yl)-3-hydroxy-2,2-dimethyl-3-phenylpropanamide]	+/−
CC(C)[C@H](C)C(=O)Nc1nc2ccc(C#N)cc2n1-c1ccc(F)cn1 [Example 73, (S)-N-(6-cyano-1-(5-fluoropyridin-2-yl)-1H-benzo[d]imidazol-2-yl)-2,3-dimethylbutanamide]	+/−
CC(C)(C)CC(=O)Nc1nc2ccc(C#N)cc2n1-c1ccc(F)cn1 [Example 74, N-(6-cyano-1-(5-fluoropyridin-2-yl)-1H-benzo[d]imidazol-2-yl)-3,3-dimethylbutanamide]	+
